{
  "source": "patent US20060183773A1",
  "about": "“Uses of methylphenidate derivatives” (priority 2005, published 2006)",
  "format_in_all_cases": "cell-based, human",
  "key": {"IL-8 [1]": {"tested_on": "IL-8", "assay": "IL-8 release by LPS-stimulated HUVECs, ELISA", "details": "for IL-8: LPS 200 ng/ml overnight + 15 μg/ml", "procedure": "Passage 4 (i.e., four cell population doublings) human umbilical vein endothelial cells (HUVECs), human source lot number 9713 (obtained from ATCC), were put into the wells of a 48-well tissue culture plate at 20,000 cells/well in 500 μl of endothelial growth medium-2 (EGM-2) complete medium (but without serum or ascorbate) (obtained from Cambrex) supplemented with ITSS (insulin, transferrin and sodium selenite) (obtained from Sigma). Also, passage 4 HUVECs, human source lot number 7016 (obtained from ATCC), were put into the wells of a 48-well tissue culture plate at 20,000 cells/well in 500 μl of EGM-2 complete medium (but without serum or ascorbate) supplemented with ITSS. The following additives were added to the cells: water (vehicle control) and 15 μg/ml of the compound of formula II (Cpd II). After incubation for 1 hour at 37 ° C. and 5% CO2, lipopolysaccharide (LPS) (obtained from Sigma) was added to give a final concentration of 200 ng/ml, and the cells were incubated overnight at 37° C. and 5% CO2. After this incubation, the supernatants were collected, and the amount of IL-8 in the supernatants determined by ELISA as described in Example 4."}, "IkB-α": {"tested_on": "IkB-α", "assay": "Custom AntibodyArray, TRiPS cells: IkB-α", "details": "15 μg/ml, 30 minutes", "procedure": "(§1) Day 18 TRiPS cells, 1×10^6, were incubated for 30 minutes at 37° C., either with nothing added (“Nil”), with 1 μl CD3/CD28 Dynabeads (Dynal, Oslo, Norway) (“CD3/CD28 beads”) per 100,000 cells, or with CD3/CD28 beads and 15 μg/ml of the compound of formula II (Cpd II). After the incubation, the cells were lysed in Cell-Lytic Mammalian Cell Extraction Reagent (Sigma). After centrifugation to pellet cellular debris, the supernatants (cell extracts) were obtained.\n(§2) The cell extracts (supernatants) were then analyzed using a Custom AntibodyArray™ manufactured by Hypromatrix Inc., Worcester, Mass., following the manufacturer's instructions. The Custom AntibodyArray™ is a nylon membrane blotted with antibodies to the proteins listed below. Briefly, the cell extracts were incubated with duplicate Custom AntibodyArray™'s for 2 hours at room temperature with slow shaking, followed by three washes with Tris buffer (150 mM NaCl, 25 mM Tris, 0.05% Tween-20, pH 7.5). HRP-labeled antibodies specific for phosphorylated-tyrosine, phosphorylated-serine and phosphorylated-threonine in Tris buffer were added, and the arrays incubated for 2 hours. After three more washes with Tris buffer, a peroxidase-reactive luminescent substrate was added. The arrays were visualized by exposure to X-ray film. Densitometry of the X-ray films was measured by scanning and computer analysis."}, "RAP2": {"tested_on": "RAP2", "assay": "Custom AntibodyArray, TRiPS cells: RAP2", "details": "15 μg/ml, 30 minutes", "procedure": "as §1, §2"}, "IL-8 [2]": {"tested_on": "IL-8", "assay": "IL-8 production by CD3/CD28-stimulated TRiPS T-cell line, ELISA", "details": "15 μg/ml; CD3/CD28 Dynabeads, 24 hours"}, "JNK1": {"tested_on": "JNK1", "assay": "Custom AntibodyArray, TRiPS cells: JNK1", "details": "15 μg/ml, 30 minutes", "procedure": "as §1, §2"}, "NFκB": {"tested_on": "NFκB", "assay": "Activated NFκB in TNFα- or VEGF-treated HIAECs, TransAM assay", "procedure": "Then, the amount of NFκB was determined using a TransAM™ NFκB p65/NFκB p50 Transcription Factor Assay Kit and a Nuclear Extract Kit from Active Motif North America, Carlsbad, Calif., according to the manufacturer's instructions. Briefly, a nuclear extract of the cells was prepared using the Nuclear Extract Kit. Then, the nuclear extract was added to the wells of the 96-well plate of the TransAM™ kit. Oligonucleotide containing an NFκB consensus binding site was immobilized in the wells, and the activated NFκB contained in the nuclear extract was bound to the oligonucleotide. Then, an antibody directed against the NFκB p65 or p50 subunit was added, and the NFκB complex bound to the oligonucleotide was detected. A secondary antibody conjugated to horseradish peroxidase (HRP) was next added to provide a colorimetric readout that was quantified by spectrophotometry (measurement at 450 nm).\nPassage 8 (human iliac artery endothelial cells (HIAECs) (obtained from ATCC; catalog no. CC-2545) were grown to confluence in 25 cm^2 flasks in EGM-2 medium. Eighteen hours prior to the experiment, the medium was replaced with EGM-2 medium containing 0.1% FCS plus heparin, GA1000 (gentamycin) and bovine pituitary extract (all from Cambrex) to place the cells in a resting state. To perform the experiment the medium was aspirated from the flasks, and the following additives were added to the flasks in fresh medium (total volume of 5 ml/flask): 15 μg/ml of the compound of formula II (Cpd II) or 10 μM LY 294002. The flasks were incubated 2 hours at 37° C., 5% CO2 After this incubation, VEGF or TNFα was added to give a final concentration 10 ng/ml, and the flasks were incubated for an additional 30 minutes. Then, the amount of NFκB was determined using a TransAM™ NFκB p65/NFκB p50 Transcription Factor Assay Kit and a Nuclear Extract Kit from Active Motif North America, Carlsbad, Calif., as described in Example 9."}, "PI3kinaseP85": {"tested_on": "PI3kinaseP85", "assay": "Custom AntibodyArray, TRiPS cells: PI3kinaseP85", "details": "15 μg/ml, 30 minutes", "procedure": "as §1, §2"}, "14-3-3": {"tested_on": "14-3-3", "assay": "Custom AntibodyArray, TRiPS cells: 14-3-3", "details": "15 μg/ml, 30 minutes", "procedure": "as §1, §2"}, "IL-2": {"tested_on": "IL-2", "assay": "Custom AntibodyArray, TRiPS cells: IL-2", "details": "15 μg/ml, 30 minutes", "procedure": "as §1, §2"}, "HUVECs": {"tested_on": "HUVECs", "assay": "Cell death of HUVECs in the TNFα/IL-8 experiment", "details": "highest dose (30 μg/ml)", "procedure": "Passage 4 HUVECs, human source lot number 8710 (obtained from ATCC), were put into the wells of a 24-well tissue culture plate at 5,000 cells/well in EGM-2 medium (obtained from Cambrex) and cultured for 72 hours at 37° C. and 5% CO2. […] After incubation for 1 hour at 37° C. and 5% CO2, TNFα (obtained from Pierce) was added to give a final concentration of 10 ng/ml, and the cells were incubated for an additional 18 hours at 37° C. and 5% CO2. After this incubation, the supernatants were collected, and the amount of IL-8 in the supernatants determined by ELISA as described in Example 4."}, "IkB-r": {"tested_on": "IkB-r", "assay": "Custom AntibodyArray, TRiPS cells: IkB-r", "details": "15 μg/ml, 30 minutes", "procedure": "as §1, §2"}},
  "data": [
    {"smiles": "COC(=O)C(c1ccc(-c2ccccc2)cc1)C1CCCCN1", "note": "(stereo not drawn) [Cpd II]", "values": [
      {"measurement": "IL-8", "setting": "IL-8 [1]; 7016 HUVECs, LPS only 53.3", "result": "Below detection"},
      {"measurement": "IL-8", "setting": "IL-8 [1]; 9713 HUVECs, LPS only 485.0", "result": 49.8, "unit": "pg/mL"},
      {"measurement": "IL-8 release by the 7016 HUVECs (in words)", "setting": "IL-8 [1]; LPS 200 ng/ml + 15 μg/ml", "result": "complete eliminated IL-8 release"},
      {"measurement": "decrease of IL-8 release in the 9713 HUVECs", "setting": "IL-8 [1]; LPS 200 ng/ml + 15 μg/ml", "result": 90, "unit": "%"},
      {"measurement": "Effect of Cpd II on the protein in CD3/CD28 stimulated TRiPS cells", "setting": "IkB-α", "result": "Slightly decreased the level"},
      {"measurement": "Effect of Cpd II on the protein in CD3/CD28 stimulated TRiPS cells", "setting": "RAP2", "result": "Activated"},
      {"measurement": "IL-8 production by the TRiPS cell line", "setting": "IL-8 [2]", "result": "no effect on IL-8 production"},
      {"measurement": "Effect of Cpd II on the protein in CD3/CD28 stimulated TRiPS cells", "setting": "JNK1", "result": "Decreased level back to basal levels (Nil control)"},
      {"measurement": "Mean OD 450 nm (NFκB)", "setting": "NFκB; TNFα 10 ng/ml + 15 μg/ml, control 0.174, TNFα only 0.881", "result": "0.302 ± 0.003"},
      {"measurement": "Mean OD 450 nm (NFκB)", "setting": "NFκB; VEGF 10 ng/ml + 15 μg/ml, control 0.174, VEGF only 0.220", "result": "0.066 + 0.005"},
      {"measurement": "Effect of Cpd II on the protein in CD3/CD28 stimulated TRiPS cells", "setting": "PI3kinaseP85", "result": "Activated"},
      {"measurement": "Effect of Cpd II on the protein in CD3/CD28 stimulated TRiPS cells", "setting": "14-3-3", "result": "Slightly decreased the level"},
      {"measurement": "Effect of Cpd II on the protein in CD3/CD28 stimulated TRiPS cells", "setting": "IL-2", "result": "Decreased level back to basal levels (Nil control)"},
      {"measurement": "cell death", "setting": "HUVECs", "result": "some cell death"},
      {"measurement": "Effect of Cpd II on the protein in CD3/CD28 stimulated TRiPS cells", "setting": "IkB-r", "result": "Decreased level back to basal levels (Nil control)"}
    ]}
  ]
}
